Counter-ions that a name gives are not always drawn. Active and inactive are the calls of the source. How the calls were made is not given here.
assay: Cytotoxicity activity against human HepG2 cells assessed by CellTiter-Glo luminescent cell viability assay.; assay type: toxicity, cell-based; parameters: assay stage confirmatory assay, source tissue liver; settings: HepG2 cells, read-out: IC50 relative

Row | Structure (SMILES) | CC50
1 | COc1ccc(C(=O)N2CCCN(CCc3nc4ccccc4n3C)CC2)cc1 | 11.3 µM (inactive)
2 | N#Cc1ccc(NC(=O)NCc2cnc3scc(-c4ccc(Br)cc4)n23)cc1 | 35 µM (active)
3 | O=C(Nc1ccc(O[C@H]2CCOC2)cc1)c1cn2ccnc2s1 | 1.8 µM (active)
4 | CCCS(=O)(=O)N1CCc2ccc(NC(=O)Nc3cccc(OC)c3)cc21 | 4.9 µM (active)
5 | CC1(C)CC=C(c2nc(C3CC(C)(C)OC(C)(C)C3)ccc2NC(=O)c2nc(C#N)c[nH]2)CC1 [EDICOTINIB] | 2.8 µM (active)
6 | CC(C)(C)c1cc(C=C(C#N)C#N)cc(C(C)(C)C)c1O [TYRPHOSTIN A9] | 0.8 µM (active)
7 | CN(c1ccc(C(=O)Nc2ccc(S(=O)(=O)N3CCOCC3)cc2)cc1)S(=O)(=O)c1ccccc1 | 2.9 µM (active)
8 | CCc1nccn1[C@H]1CCCN(CCOc2ccc(OC)cc2)C1 | 4.1 µM (active)
9 | CCN1CCN(C(=O)C2CCCN(c3nn4cc(-c5ccc(OC)cc5)nc4s3)C2)CC1 (stereo not drawn) | 12.8 µM (active)
10 | CC/C(=C(\c1ccc(O)cc1)c1ccc(OCCN(C)C)cc1)c1ccccc1 [AFIMOXIFENE] | 3.9 µM (active)
11 | CC1CN(CCS(=O)(=O)c2ccc(Oc3ccc(S(=O)(=O)CCN4CC(C)OC(C)C4)cc3)cc2)CC(C)O1 (stereo not drawn) | 6.1 µM (active)
12 | CCC1CN(Cc2ccccc2OCc2cccc(OC)c2)CCN1C (stereo not drawn) | 17.8 µM (inactive)
13 | CCOc1ccccc1C(=O)N1CCN(c2ccccc2OCC)CC1 | 15.1 µM (inactive)
14 | COc1ccc(CN(CC(=O)c2c(N)n(C)c(=O)n(C)c2=O)[C@@H](C)Cc2cccs2)cc1 | 7.2 µM (active)
15 | CC(C)Nc1cc(-c2c[nH]c(C(=O)N[C@H](CO)c3cccc(Cl)c3)c2)c(Cl)cn1 [ULIXERTINIB] | 1 µM (active)
16 | Clc1cccc2[nH]nc(Br)c12 | 8.8 µM (active)
17 | N#Cc1cnc2c(Cl)cc(NCc3cn(CCN4CCCCCC4)nn3)cc2c1Nc1ccc(F)c(Cl)c1 | 11.6 µM (active)
18 | CC(C)OCCCN[C@H]1CS(=O)(=O)C[C@@H]1S(=O)(=O)c1ccc(Cl)cc1 | 16 µM (active)
19 | CC(C)(C)OC(=O)Nc1ccc(-c2cc(C(=O)NCCCCCCC(=O)NO)no2)cc1 | 0.7 µM (active)
20 | O=C(NO)c1ccc(I)cc1 | 12.2 µM (active)
21 | CS(=O)(=O)c1cccc(CNc2nc(Nc3ccc4c(c3)CCC(=O)N4)ncc2C(F)(F)F)c1 | 7.8 µM (active)
22 | CCc1nn(CCCN2CCN(c3cccc(Cl)c3)CC2)c(=O)n1CCOc1ccccc1 [NEFAZODONE HYDROCHLORIDE] | 14.4 µM (active)

Row | Structure (SMILES) | CC50
23 | COc1ccc(C(=O)N[C@@H]2CN(Cc3ccccc3)C[C@H]2CN(C)C)cc1 | 7.2 µM (active)
24 | O=C(Nc1ccncc1)c1cccn(Cc2cccc(F)c2)c1=O | 6.1 µM (active)
25 | Fc1cccc(N2CCCC2)c1CNc1nccc(N[C@H]2CCCOC2)n1 | 6.5 µM (active)
26 | CCc1ccc(NC(=O)Nc2ccc3c(c2)N(S(C)(=O)=O)CC3)cc1 | 2.3 µM (active)
27 | CCn1c(=O)c(C(=O)Nc2cccc(OC)c2)c(O)c2ccccc21 | 2.4 µM (inactive)
28 | O=C(Nc1cccc(C(F)(F)F)c1)Nc1cc(S(=O)(=O)NC2CC2)ccc1-c1ccsc1 | 10.1 µM (active)
29 | CCN1CCN(Cc2cc(=O)oc3cc(-c4ccccc4)c(O)cc23)CC1 | 3.8 µM (active)
30 | N#Cc1ccc(Cn2cncc2CN2CCN(c3cccc(Cl)c3)C(=O)C2)cc1 [L-778123] | 1.1 µM (active)
31 | CCOc1ccc(CN2CCN(C(=O)c3ccc(-c4ncon4)cc3)CC2)cc1 | 5 µM (active)
32 | O=C(NCCc1ccco1)c1cc2ccccc2cc1O | 8.5 µM (active)
33 | Cc1c(C(=O)Nc2ccnc3ccnn23)cnn1-c1ccccc1F | 3.3 µM (active)
34 | Cc1cc(C)cc(NC(=O)N(C)CCc2scnc2C)c1 | 50 µM (inactive)
35 | O=C(Nc1ccc([N+](=O)[O-])cc1O)Nc1ccccc1Br | 8.9 µM (active)
36 | CCN(CC)C(=O)CN1CCN(S(=O)(=O)c2ccc3c(c2)CCC3)CC1 | 50 µM (inactive)
37 | Cc1c(Cl)sn(-c2ccc(Cl)cc2)c1=O | 4.4 µM (active)
38 | O=C(NCC(F)(F)CO)c1ccc2noc(-c3ccccc3)c2c1 | 7.2 µM (active)
39 | Cc1ccc(Sc2ccccc2N2CCNCC2)c(C)c1 [VORTIOXETINE] | 4.1 µM (active)
40 | CCCCNc1ncc2c(-c3ccc(CN4CCN(C)CC4)cc3)cn([C@H]3CC[C@H](O)CC3)c2n1 | 1.3 µM (active)
41 | CN(C)C/C=C/C(=O)Nc1ccc(C(=O)Nc2cccc(Nc3ncc(Cl)c(-c4c[nH]c5ccccc45)n3)c2)cc1 | < 0.1 µM (active)
42 | O=C(Cn1nnc2ccccc21)Nc1nc(-c2ccccn2)cs1 | 1.7 µM (active)
43 | Clc1ccc(-c2cnc(CN3CC4(CCNCC4)[C@H]4COC[C@H]43)o2)cc1 | 12.8 µM (active)
44 | CN(C)CCN(C)CCc1ccc(Cl)c(Cl)c1 | 15.3 µM (inactive)

Row | Structure (SMILES) | CC50
45 | COc1ccc(NC(=O)Nc2ccc3nc(S(C)(=O)=O)sc3c2)cc1 | 17.5 µM (inactive)
46 | O=C(Nc1ccc2c(c1)S(=O)(=O)C=C2)c1ncoc1-c1ccco1 | 10.9 µM (inactive)
47 | Cc1cc(O)c(-c2ccc([C@@H](C)CN)cc2)c2c1[nH]c(=O)c1sccc12 | 0.1 µM (active)
48 | Cn1cc(S(=O)(=O)N2CCC[C@@H]2COc2ccc(F)cc2)cc1C(N)=O | 0.6 µM (active)
49 | Clc1ccc(OCC2CCCNC2)c2ccccc12 (stereo not drawn) | 2 µM (active)
50 | Cc1ccc2ncc(C(=O)Nc3ccc(Cl)cc3O)c(=O)n2c1 | 1.4 µM (inactive)
51 | Cc1cc(F)ccc1N1CCC(N[C@@H]2CCOC[C@H]2OCC2CC2)CC1 | 15.6 µM (inactive)
52 | COc1ccc(-c2noc(=O)n2Cc2ncc(C)c(OC)c2C)cc1OC | 6.2 µM (active)
53 | CC(C)S(=O)(=O)N1CC(Oc2ccc(-c3noc(-c4ccncc4)n3)cc2)C1 | 19.7 µM (inactive)
54 | CC(C)N1CCN(Cc2nc(Cn3ccn4nc(-c5ccccc5)cc4c3=O)no2)CC1 | 8.2 µM (active)
55 | CC1=NN(C(=O)c2ccc(N(C)C)cc2)C(O)(C(F)(F)F)C1 (stereo not drawn) | 25 µM (inactive)
56 | C[C@@H]1Oc2ccc(NC(=O)c3ccc(S(=O)(=O)NCc4ccco4)cc3)cc2NC1=O | 6.8 µM (inactive)
57 | Cc1cc(C)n(C(=O)Cc2cccs2)n1 | 16 µM (inactive)
58 | Fc1ccc2[nH]c(CCNc3ncc(Br)cn3)nc2c1 | 5.1 µM (active)
59 | CNS(=O)(=O)c1cc(-c2cc(C(=O)Nc3cccc(OC)c3)n[nH]2)ccc1OC | 9.2 µM (active)
60 | CCOc1ccc(NC(=O)CNC[C@H]2CCCO2)cc1C | 40.3 µM (inactive)
61 | C=CCN(C)CCCCCCOc1ccc(C(=O)c2ccc(Br)cc2)c(F)c1 | 2.8 µM (active)
62 | CCCC(=O)Nc1ccc(Nc2nc(C)cc(N(CC)CC)n2)cc1 | 4.2 µM (active)
63 | CCN(Cc1cc(Nc2nc(C)cn3c(-c4cn[nH]c4)cnc23)sn1)C(C)(C)CO | 1.8 µM (active)
64 | O=c1[nH]c(Cc2ccc(-n3cccn3)cc2)nc2ccccc12 | 2.1 µM (active)
65 | C[C@]12CCC3[C@@H](CC[C@]4(O)C[C@@H](O)CC[C@]34C=O)[C@@]1(O)CC[C@@H]2C1=CC(=O)OC1 (stereo partly drawn) | 0.4 µM (active)
66 | Cc1sc2c(c1C)C(c1ccc(Cl)cc1)=N[C@@H](CC(=O)NCCCCCCCCNC(=O)COc1cccc3c1C(=O)N(C1CCC(=O)NC1=O)C3=O)c1nnc(C)n1-2 (stereo partly drawn) | < 0.1 µM (active)

Row | Structure (SMILES) | CC50
67 | Cc1oc2c(c1C(=O)c1ccc(Cl)cc1)C(=O)C(=O)c1ccccc1-2 | 31.4 µM (inactive)
68 | O=C1/C(=C/c2ccc([N+](=O)[O-])cc2)CS(=O)(=O)C/C1=C\c1ccc([N+](=O)[O-])cc1 | 0.1 µM (active)
69 | O=C1NC(=O)C(c2cnc3ccccn23)=C1c1cn2c3c(cc(F)cc13)CN(C(=O)N1CCCCC1)CC2 [LY-2090314] | 9.5 µM (active)
70 | CN(C)CCNC(=O)Cn1c(-c2ccccc2)nn(-c2ccc(Cl)cc2)c1=O | 6.5 µM (active)
71 | CCN1CCN(c2ncc(C(=O)Nc3ccc(Br)cc3)c(C)n2)CC1 | 13.8 µM (inactive)
72 | CCNC(=O)c1noc(-c2cc(C(C)C)c(O)cc2O)c1-c1ccc(CN2CCOCC2)cc1 [LUMINESPIB] | < 0.1 µM (active)
73 | O[C@H]1CCN(Cc2csc(-c3ccoc3)n2)C12CCCC2 | 5 µM (active)
74 | Cc1ccc(NC(=O)CCN(C)CC2CCN(C)C2(C)C)cc1F (stereo not drawn) | 9.7 µM (active)
75 | CO[C@H]1C[C@@H]2CC[C@@H](C)[C@@](O)(O2)C(=O)C(=O)N2CCCC[C@H]2C(=O)O[C@H]([C@H](C)C[C@@H]2CC[C@@H](O)[C@H](OC)C2)CC(=O)[C@H](C)/C=C(\C)[C@@H](O)[C@@H](OC)C(=O)[C@H](C)C[C@H](C)/C=C/C=C/C=C/1C [SIROLIMUS] | 17.5 µM (inactive)
76 | Cc1ccc(N2N=C(C(=O)NCCN3CCOCC3)S(=O)(=O)c3cc(F)ccc32)cc1 | 11.2 µM (active)
77 | O=[N+]([O-])c1ccc(Sc2cccc[n+]2[O-])c2nonc12 | 0.6 µM (active)
78 | COc1ccc(-c2nc(CN3CCN(C(=O)c4ccc5c(c4)OCO5)CC3)cs2)cc1 | 7.8 µM (active)
79 | Cc1ccccc1N1CCN(C(=O)C2CCN(S(=O)(=O)c3ccc4c(c3)OCCCO4)CC2)CC1 | 1.7 µM (active)
80 | C[C@@H](Oc1cc(-c2cnn(C3CCNCC3)c2)cnc1N)c1c(Cl)ccc(F)c1Cl [CRIZOTINIB] | 2.8 µM (active)
81 | Cc1n[nH]c(C)c1CC(=O)Nc1cnn([C@@H](C)C2CC2)c1 | 50 µM (inactive)
82 | N#Cc1ccc(CNC(=O)CCCCCN2CCN(c3ccccc3-c3ccccc3)CC2)cc1 | 12.3 µM (active)
83 | COc1cccc2c1C(=O)c1c(O)c3c(c(O)c1C2=O)CC(O)(C(=O)CO)CC3OC1CC(N)C(O)C(C)O1 (stereo not drawn) | 0.4 µM (active)
84 | CN(CC(=O)NCCN1CCC(Cc2ccccc2)CC1)S(=O)(=O)c1cccc2nsnc12 | 9.1 µM (active)
85 | OCCn1cc(-c2ccc3c(c2)CC/C3=N\O)c(-c2ccncc2)n1 | 1.1 µM (active)
86 | Cn1cnc2c(F)c(Nc3ccc(Br)cc3F)c(C(=O)NOCCO)cc21 [BINIMETINIB] | < 0.1 µM (active)
87 | O=C(Cn1ncc(Cl)c(Cl)c1=O)NCc1ccccc1 | 5.4 µM (active)
88 | C=CCNc1c(O)cc2c(O)c1C[C@@H](C)C[C@H](OC)[C@H](O)[C@@H](C)/C=C(/C)[C@H](OC(N)=O)[C@@H](OC)/C=C\C=C(\C)C(=O)N2 | 0.1 µM (active)

Source: ChEMBL document CHEMBL5303711, “ECBD screening data for assay EOS300108” (2023)
